From patent publication US20110207660A1, “PHARMACEUTICAL FORMULATIONS OF AN HCV PROTEASE INHIBITOR IN A SOLID MOLECULAR DISPERSION” (Schering Corporation, priority 2008, published 2011)

How the values were obtained:
[1] = in vitro IC90 of Compound I; settings: reference line in FIGS. 5A and 5B
[2] = Biopharmaceutics Classification System class; type: physicochemical; settings: low solubility and low permeability
[3] = Clinical Study 2: once-a-day 300 mg Compound I with 100 mg ritonavir for 10 days, healthy human subjects, fed; settings: in vivo, steady state, Day 10, formulation G tablets 3×100 mg QD + 100 mg ritonavir QD, 8 healthy human subjects, read-out: Cmin Range
Procedure: The pharmacokinetic profile of Compound I following once-a-day oral administration of 300 mg Compound I in a formulation of the present invention in tablet form (specifically exemplary formulation G described in Table 3A, 3×100 mg, QD) in combination with 100 mg ritonavir (RTV, 1×100 mg, QD) for 10-days to healthy human subjects under fed conditions (i.e., following a standard meal) was determined. […] Blood was collected from each subject pre-dose (on Days 7, 8, and 9), as well as 0.5, 1, 1.5, 2, 3, 4, 5, 6, 7, 8, 10, 12, 16, and 24 hr post-dose (on Day 10) for determining the concentration of Compound I in the plasma and to calculate the pharmacokinetic parameters for each formulation.

CCCC[C@H](NC(=O)[C@@H]1[C@@H]2[C@H](CN1C(=O)[C@@H](NC(=O)NC1(CS(=O)(=O)C(C)(C)C)CCCCC1)C(C)(C)C)C2(C)C)C(=O)C(=O)NC1CC1 [Compound I]
in vitro IC90 [1]: 28 ng/mL
Biopharmaceutics Classification System class [2]: Class IV
concentration at 10 days [3]: 167 to 426 ng/mL
